Source: patent US7759345B2, “Antitumoral derivatives of ET-743” (priority 2001, dated 2010)
Read-outs that look alike come from different tables or passages of the source.

How the values were obtained:
K-562 = assay: Inhibition of cells growth by colorimetric assay (SRB), K-562; assay type: cell-based
Outline: (§1)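 Human cancer and endothelial lines are seeded at 5×10^3 cells per well and, after 18 h, treated for 48 h with compound dissolved in DMSO/EtOH/PBS (0.5:0.5:99) at 10 to 10^−8 μg/ml. Cell mass is quantified by SRB staining (OD 490 nm), and growth inhibition, total growth inhibition and cell kill are calculated from triplicate wells.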

A-549 [1] = assay: Inhibition of cells growth by colorimetric assay (SRB), A-549; assay type: cell-based
Outline: as §1

SK-MEL-28 = assay: Inhibition of cells growth by colorimetric assay (SRB), SK-MEL-28; assay type: cell-based
Outline: as §1

HT-29 [2] = assay: Inhibition of cells growth by colorimetric assay (SRB), HT-29; assay type: cell-based
Outline: as §1

LoVo = assay: Inhibition of cells growth by colorimetric assay (SRB), LoVo; assay type: cell-based
Outline: as §1

LoVo-Dox = assay: Inhibition of cells growth by colorimetric assay (SRB), LoVo-Dox; assay type: cell-based
Outline: as §1

DU-145 [3] = assay: Inhibition of cells growth by colorimetric assay (SRB), DU-145; assay type: cell-based
Outline: as §1

LNCaP = assay: Inhibition of cells growth by colorimetric assay (SRB), LNCaP; assay type: cell-based
Outline: as §1

SK-BR-3 = assay: Inhibition of cells growth by colorimetric assay (SRB), SK-BR-3; assay type: cell-based
Outline: as §1

IGROV-1 = assay: Inhibition of cells growth by colorimetric assay (SRB), IGROV-1; assay type: cell-based
Outline: as §1

IGROV-ET = assay: Inhibition of cells growth by colorimetric assay (SRB), IGROV-ET; assay type: cell-based
Outline: as §1

SK-OV-3 = assay: Inhibition of cells growth by colorimetric assay (SRB), SK-OV-3; assay type: cell-based
Outline: as §1

PANC-1 = assay: Inhibition of cells growth by colorimetric assay (SRB), PANC-1; assay type: cell-based
Outline: as §1

HMEC1 = assay: Inhibition of cells growth by colorimetric assay (SRB), HMEC1; assay type: cell-based
Outline: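 First, cells were plated at 5×10^3 per well and left 18 h to attach. Next, compound was added over 10 to 10^−8 μg/ml for 48 h. Finally, cells were TCA-fixed, SRB-stained and absorbance read at 490 nm.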

Liver [4] = assay: In vitro toxicity, Liver
Description: (§3) Toxicity was asssessed by the methods reported in Toxicology in Vitro, 15 (2001) 571-577, J. Luber Narod et al.: “Evaluation of the use of in vitro methodolodies as tools for screening new compounds for potential in vivo toxicity”.

Heart [5] = assay: In vitro toxicity, Heart
Description: as §3

Myelo [6] = assay: In vitro toxicity, Myelo
Description: as §3

Kidney [7] = assay: In vitro toxicity, Kidney
Description: as §3

Skeletal [8] = assay: In vitro toxicity, Skeletal
Description: as §3

P-388 = assay: Inhibition of cell growth by counting cells, P-388; assay type: cell-based, mouse; conditions: Mus musculus, P388, 72 h; three days of incubation; read-out: IC50 (molar) P-388
Outline: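 IC50 is the sample concentration halving growth, taken from dose-response curves of cell counts (Coulter counter, duplicate wells) relative to drug-free cultures. P-388 (DBA/2 mouse lymphoid neoplasm) cells plated at 1×10^4 per well in EMEM with 5% FCS plus test sample.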

A-549 [9] = assay: Inhibition of cell growth by counting cells, A-549; assay type: cell-based, human; conditions: Homo sapiens, A549, 72 h; three days of incubation; read-out: IC50 (molar) A-549
Outline: (§2)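 1×10^4 cells/well, EMEM 5% FCS + test sample at several concs, duplicates; 3 d, 37° C, 5% CO2, humidified. Trypsinize, Coulter count; % growth vs untreated wells; IC50 from dose-response curve.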

HT-29 [10] = assay: Inhibition of cell growth by counting cells, HT-29; assay type: cell-based, human; conditions: Homo sapiens, HT-29, 72 h; three days of incubation; read-out: IC50 (molar) HT-29
Outline: as §2

MEL-28 = assay: Inhibition of cell growth by counting cells, MEL-28; assay type: cell-based, human; conditions: Homo sapiens, SK-MEL-28, 72 h; three days of incubation; read-out: IC50 (molar) MEL-28
Outline: as §2

DU-145 [11] = assay: Inhibition of cell growth by counting cells, DU-145; assay type: cell-based, human; conditions: Homo sapiens, DU-145, 72 h; three days of incubation; read-out: IC50 (molar) DU-145
Outline: as §2

tumor cell culture = assay: Bioassays for antitumor screening, cell line not given; assay type: cell-based; conditions: cell line not stated
Description: Bioassays for Antitumor Screening
The finality of these assays is to interrupt the growth of a “in vitro” tumor cell culture by means a continued exhibition of the cells to the sample to be testing.

Liver [12] = test system: Liver
Description: as §3

Heart [13] = test system: Heart
Description: as §3

Myelo [14] = test system: Myelo
Description: as §3

Skeletal [15] = test system: Skeletal
Description: as §3

Kidney [16] = test system: Kidney
Description: as §3

For `COc1cc2c(cc1O)CCN[C@]21CS[C@@H]2c3c(OC(=O)C(F)(F)C(F)(F)C(F)(F)F)c(C)c4c(c3[C@H](COC1=O)N1C2[C@H]2c3c(cc(C)c(OC)c3O)C[C@@H]([C@@H]1O)N2C)OCO4` (stereo partly shown) [Compound 167], the GI50 (K-562; Homo sapiens, K562, 48 h, read-out: K-562 GI50) was 7 nM, the LC50 (50% cell killing) (K-562; Homo sapiens, K562, 48 h, read-out: K-562 LC50, SRB assay, 48 hours exposure) was 71.7 nM and the “K-562 TGI” value (K-562; SRB assay, 48 hours exposure) was 9.64E-09. For the same molecule, the GI50 (A-549 [1]; Homo sapiens, A549, 48 h, read-out: A-549 GI50) was 28.3 nM, the LC50 (concentration for 50% cell killing) (A-549 [1]; Homo sapiens, A549, 48 h, read-out: A-549 LC50, SRB assay, 48 hours exposure) was 482 nM and the “A-549 TGI” value (A-549 [1]; SRB assay, 48 hours exposure) was 6.54E-08. For the same molecule, the GI50 (SK-MEL-28; Homo sapiens, SK-MEL-28, 48 h, read-out: MEL-28 GI50) was 23.8 nM, the CC50 (SK-MEL-28; Homo sapiens, SK-MEL-28, 48 h, read-out: MEL-28 LC50, SRB assay, 48 hours exposure) was 107 nM and the “MEL-28 TGI” value (SK-MEL-28; SRB assay, 48 hours exposure) was 5.06E-08. The GI50 (HT-29 [2]; Homo sapiens, HT-29, 48 h, read-out: HT-29 GI50) was 28.9 nM, the LC50 (concentration for 50% cell killing) (HT-29 [2]; Homo sapiens, HT-29, 48 h, read-out: HT-29 LC50, SRB assay, 48 hours exposure) was 10900 nM and the “HT-29 TGI” value (HT-29 [2]; SRB assay, 48 hours exposure) was 1.51E-07. The GI50 (LoVo; Homo sapiens, LoVo, 48 h, read-out: LOVO GI50) was 33.6 nM, the LC50 (concentration for 50% cell killing) (LoVo; Homo sapiens, LoVo, 48 h, read-out: LOVO LC50, SRB assay, 48 hours exposure) was 190 nM and the “LOVO TGI” value (LoVo; SRB assay, 48 hours exposure) was 6.74E-08. For the same molecule, the GI50 (LoVo-Dox; Homo sapiens, 48 h, read-out: LOVO-DOX GI50) was 416 nM, the CC50 (LoVo-Dox; Homo sapiens, 48 h, read-out: LOVO-DOX LC50, SRB assay, 48 hours exposure) was 10900 nM and the “LOVO-DOX TGI” value (LoVo-Dox; SRB assay, 48 hours exposure) was 1.58E-06. For the same molecule, the GI50 (DU-145 [3]; Homo sapiens, DU-145, 48 h, read-out: DU-145 GI50) was 48.8 nM, the CC50 (DU-145 [3]; Homo sapiens, DU-145, 48 h, read-out: DU-145 LC50, SRB assay, 48 hours exposure) was 10900 nM and the “DU-145 TGI” value (DU-145 [3]; SRB assay, 48 hours exposure) was 1.01E-07. For the same molecule, the GI50 (LNCaP; Homo sapiens, LNCaP, 48 h, read-out: LNCAP GI50, SRB assay, 48 hours exposure) was 19.7 nM, the CC50 (LNCaP; Homo sapiens, LNCaP, 48 h, read-out: LNCAP LC50, SRB assay, 48 hours exposure) was 73.6 nM and the “LNCAP TGI” value (LNCaP; SRB assay, 48 hours exposure) was 3.80E-08. The GI50 (SK-BR-3; Homo sapiens, SK-BR-3, 48 h, read-out: SK-BR3 GI50) was 17.6 nM, the CC50 (SK-BR-3; Homo sapiens, SK-BR-3, 48 h, read-out: SK-BR3 LC50, SRB assay, 48 hours exposure) was 238 nM and the “SK-BR3 TGI” value (SK-BR-3; SRB assay, 48 hours exposure) was 5.19E-08. For the same molecule, the GI50 (IGROV-1; Homo sapiens, IGROV-1, 48 h, read-out: IGROV GI50) was 6.46 nM, the CC50 (IGROV-1; Homo sapiens, IGROV-1, 48 h, read-out: IGROV LC50, SRB assay, 48 hours exposure) was 89.2 nM and the “IGROV TGI” value (IGROV-1; SRB assay, 48 hours exposure) was 2.49E-08. The GI50 (IGROV-ET; Homo sapiens, 48 h, read-out: IGROV-ET GI50) was 77.6 nM, the CC50 (IGROV-ET; Homo sapiens, 48 h, read-out: IGROV-ET LC50, SRB assay, 48 hours exposure) was 5240 nM and the “IGROV-ET TGI” value (IGROV-ET; SRB assay, 48 hours exposure) was 9.05E-07. For the same molecule, the GI50 (SK-OV-3; Homo sapiens, SK-OV-3, 48 h, read-out: SK-OV3 GI50) was 40.2 nM, the LC50 (SK-OV-3; Homo sapiens, SK-OV-3, 48 h, read-out: SK-OV3 LC50, SRB assay, 48 hours exposure) was 10900 nM and the “SK-OV3 TGI” value (SK-OV-3; SRB assay, 48 hours exposure) was 1.48E-07. For the same molecule, the GI50 (PANC-1; Homo sapiens, PANC-1, 48 h, read-out: PANC-1 GI50) was 46.5 nM, the LC50 (concentration for 50% net cell kill) (PANC-1; Homo sapiens, PANC-1, 48 h, read-out: PANC-1 LC50, SRB assay, 48 hours exposure) was 10900 nM and the “PANC-1 TGI” value (PANC-1; SRB assay, 48 hours exposure) was 1.09E-07. For the same molecule, the GI50 (HMEC1; Homo sapiens, HMEC-1, 48 h, read-out: HMEC-1 GI50) was 51.5 nM, the LC50 (HMEC1; Homo sapiens, HMEC-1, 48 h, read-out: HMEC-1 LC50, SRB assay, 48 hours exposure) was 10900 nM and the “HMEC-1 TGI” value (HMEC1; SRB assay, 48 hours exposure) was 3.49E-07. For the same molecule, the “Toxicity Data Liver” value (Liver [4]) was 4.83E-07, the “Toxicity Data Heart” value (Heart [5]) was 4.28E-07 and the “Toxicity Data Myelo” value (Myelo [6]) was 1.01E-06. The “Toxicity Data Kidney” value (Kidney [7]) was 2.77E-07 and the “Toxicity Data Skeletal” value (Skeletal [8]) was 1.09E-07.
In the case of `CCCCCCCCCCCCCCCC(=O)Oc1c(C)c2c(c3c1[C@H]1SC[C@]4(NCCc5cc(O)c(OC)cc54)C(=O)OC[C@@H]3N3C1[C@H]1c4c(cc(C)c(OC)c4O)C[C@@H]([C@@H]3O)N1C)OCO2` (stereo partly shown) [Compound 170], the IC50 (P-388) is reported as 52.2 nM, the IC50 (A-549 [9]) is reported as 52.2 nM and the IC50 (HT-29 [10]) is reported as 52.2 nM. For the same molecule, the IC50 (MEL-28) was 52.2 nM, the IC50 (DU-145 [11]) was 52.2 nM and the “antitumor activity (in words)” value (tumor cell culture) was “active”. The “Toxicity Data Liver” value (Liver [12]) was 3.58E-07, the “Toxicity Data Heart” value (Heart [13]) was “non toxic” and the “Toxicity Data Myelo” value (Myelo [14]) was “non toxic”. For the same molecule, the “Toxicity Data Skeletal” value (Skeletal [15]) was 3.29E-07 and the “Toxicity Data Kidney” value (Kidney [16]) was 3.01E-07.
